Experiments:
[1] = molecular target: T1, thromboxane A2 receptor (TP) (Homo sapiens, UniProt P21731); test: Human Thromboxane A2 Receptor Binding Assay; settings: human platelets; 10 nM [3H]SQ29548; 1 hour, room temperature
T1 construct: using human platelets as the source of the receptor; from tissue; host or cells: human platelets (whole platelets, 5x10^7 per well)
T1 sequence (P21731 1-343): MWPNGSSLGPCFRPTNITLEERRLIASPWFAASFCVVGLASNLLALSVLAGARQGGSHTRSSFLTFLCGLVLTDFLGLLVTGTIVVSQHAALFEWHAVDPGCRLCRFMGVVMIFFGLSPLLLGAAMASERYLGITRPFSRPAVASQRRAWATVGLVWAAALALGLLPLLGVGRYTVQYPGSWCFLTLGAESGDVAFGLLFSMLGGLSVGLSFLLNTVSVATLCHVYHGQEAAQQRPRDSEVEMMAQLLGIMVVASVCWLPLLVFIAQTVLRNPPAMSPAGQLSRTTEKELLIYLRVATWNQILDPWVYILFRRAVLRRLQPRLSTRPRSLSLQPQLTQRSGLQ
Text: The thromboxane A2 receptor (TP) plays a key role in hemostasis as its abnormality leads to bleeding disorders. To avoid the potential liability of bleeding disorders, the binding activity of certain compounds of the present invention against TP was monitored by a receptor binding assay using human platelets as the source of the receptor and [^3H]SQ29548 (generically named (5Z)-[5,6-^3H]-7-[(1S,2R,3R,4R)-3-[[2-[(phenylamino)carbonyl]hydrazinyl]methyl]-7-oxabicyclo[2.2.1]hept-2-yl]-5-heptenoic acid, from PerkinElmer Inc.) as the competing radioactive ligand.
The TP binding reactions (0.2 mL) were performed in 96-well plates at room temperature in PBS containing 5×10^7 platelets, 10 mM MgCl2, 0.06% BSA, 10 nM [^3H]SQ29548, and the test compound at various concentrations. After 1 hour of binding reactions, the platelets were harvested on GF/B filter plates (as previously described from PerkinElmer Inc.) and washed 5 times with PBS using a Filtermate™ Harvester (as previously described from PerkinElmer Inc.). The radioactivities bound to the platelets were determined using a microplate scintillation counter (TopCount® NXT, from PerkinElmer Inc.) after adding 50 μL of Microscint™ 20 scintillation fluid (from PerkinElmer Inc.) to each well of the filter plates. The radioactivity from non-specific binding was determined by replacing the compound with 10 μM of ramatroban (BAY-u3405, from Cayman Chemical Company) in the reaction mixtures. The radioactivity bound to the platelets in the absence of compound (total binding) was determined by replacing the compound with 0.25% of DMSO in the reaction mixture. Specific binding data were obtained by subtracting the radioactivity of non-specific binding from each binding data.
(§1) The IC50 value is defined as the concentration of the tested compound that is required for 50% inhibition of total specific binding. In order to calculate the IC50 value, the percent inhibition data were determined for 7 concentrations for each compound. The percent inhibition for a compound at each concentration was calculated according to the following formula, [1−(specific binding in the presence of compound)/(total specific binding)]×100. The IC50 value was then obtained by fitting the percent inhibition data to a sigmoidal dose-response (4 parameter logistic) model in the XLfit® software Excel add-in program [from ID Business Solutions Ltd., model 205, where F(x)=(A+(B−A)/(1+((C/x)̂D)))].

[2] = molecular target: T2, human CRTH2 (Homo sapiens, UniProt Q9Y5Y4); test: Human CRTH2 Receptor Binding Assay (whole cell, [3H]ramatroban competition); parameters: expressed in transfected cells; host or cells: CHO-K1 (co-transfected with G-alpha16); settings: CHO-K1 cells expressing human CRTH2 and G-alpha16; 20 nM [3H]ramatroban; 1 hour, room temperature
T2 sequence (Q9Y5Y4 1-395): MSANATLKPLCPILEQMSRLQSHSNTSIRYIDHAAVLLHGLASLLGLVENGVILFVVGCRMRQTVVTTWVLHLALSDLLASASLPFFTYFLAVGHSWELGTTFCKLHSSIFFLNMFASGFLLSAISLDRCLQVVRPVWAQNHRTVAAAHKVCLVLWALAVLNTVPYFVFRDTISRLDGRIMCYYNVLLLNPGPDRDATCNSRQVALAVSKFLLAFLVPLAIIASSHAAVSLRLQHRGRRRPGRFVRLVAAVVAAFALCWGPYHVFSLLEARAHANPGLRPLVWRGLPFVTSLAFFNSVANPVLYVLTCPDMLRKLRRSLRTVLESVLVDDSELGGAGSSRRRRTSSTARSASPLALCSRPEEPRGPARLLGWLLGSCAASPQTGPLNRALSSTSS
Text: A whole cell receptor binding assay using [^3H]ramatroban as the competing radioactive ligand was employed to evaluate the compound binding activity to human CRTH2. The radioactive ligand [^3H]ramatroban was synthesized according to Sugimoto et. al. (Eur. J. Pharmacol. 524, 30-37, 2005) to a specific activity of 42 Ci/mmol.
A cell line stably expressing human CRTH2 was established by transfecting CHO-K1 cells with two mammalian expression vectors that harbored human CRTH2 and G-alpha16 cDNAs, respectively, using FuGene® 6 transfection reagent (from Roche). Stable clones expressing CRTH2 were selected by staining each clone with BM16 (BD Pharmingen™ from BD Biosciences, a division of Becton, Dickinson and Company), which is a rat monoclonal antibody to human CRTH2. The cells were maintained as monolayer cultures in Ham's F-12 medium containing 10% fetal bovine serum, 100 units/mL penicillin, 100 μg/mL streptomycin, 2 mM glutamine, 0.5 mg/mL G418 (geneticin) for CRTH2, and 0.2 mg/mL hygromycin-B (for G-alpha 16). For whole cell receptor binding assay, the monolayer cells were rinsed once with PBS (phosphate buffered saline), dissociated using ethylenediaminetetraacetate (Versene™ EDTA from Lonza Inc.), and suspended in PBS containing 10 mM MgCl2 and 0.06% BSA (bovine serum albumin) at 1.5×10^6 cells/mL.
The binding reactions (0.2 mL) were performed in 96-well plates at room temperature in PBS containing 1.5×10^5 cells, 10 mM MgCl2, 0.06% BSA, 20 nM [^3H]ramatroban, and test compound at various concentrations. After 1 hour of binding reactions, the cells were harvested on GF™/B filter microplates (microtiter plates with embedded glass fiber from PerkinElmer, Inc.) and washed 5 times with PBS using a Filtermate™ Harvester (a cell harvester that harvests and washes cells from microplates from PerkinElmer, Inc.). The radioactivities bound to the cells were determined using a microplate scintillation counter (TopCount® NXT, from PerkinElmer, Inc.) after adding 50 μL of Microscint™ 20 scintillation fluid (from PerkinElmer, Inc.) to each well of the filter plates. The radioactivity from non-specific binding was determined by replacing compound with 10 μM of 15(R)-15-methyl PGD2 (from Cayman Chemical Company) in the reaction mixtures. The radioactivity bound to the cells in the absence of compound (total binding) was determined by replacing compound with 0.25% of DMSO (dimethyl sulfoxide) in the reaction mixture. Specific binding data were obtained by subtracting the radioactivity of non-specific binding from each binding data.
as §1

Question: What does the source list for `CN([C@@H]1CCCc2c(OCC(=O)O)cccc21)S(=O)(=O)c1cc(F)cc(C(F)(F)F)c1` [Example 1-1, {(R)-5-[(3-fluoro-5-trifluoromethyl-benzenesulfonyl)-methyl-amino]-5,6,7,8-tetrahydro-naphthalen-1-yloxy}-acetic acid]?
Answer: IC50 [1]: > 10000 nM; IC50 [2]: 381 nM

Question: Which results are given for `CCN(CC)c1cc(C(F)(F)F)cc(S(=O)(=O)N(C)[C@@H]2CCCc3c(OCC(=O)O)cccc32)c1` [Example 4-2, {(R)-5-[(3-diethylamino-5-trifluoromethyl-benzenesulfonyl)-methyl-amino]-5,6,7,8-tetrahydro-naphthalen-1-yloxy}-acetic acid]?
Answer: IC50 [1]: > 10000 nM; IC50 [2]: 773 nM

Question: How did the IC50 [1] turn out when `CCOc1cc(C(F)(F)F)cc(S(=O)(=O)N(C)[C@@H]2CCCc3c(OCC(=O)O)cccc32)c1` [Example 9-2, {(R)-5-[(3-ethoxy-5-trifluoromethyl-benzenesulfonyl)-methyl-amino]-5,6,7,8-tetrahydro-naphthalen-1-yloxy}-acetic acid] was run?
Answer: > 10000 nM

Question: What about the IC50 [2] of the same compound?
Answer: 399 nM

Question: Which IC50 [1] does the source give for `CN([C@@H]1CCCc2c(OCC(=O)O)cccc21)S(=O)(=O)c1cc(OC2CCCC2)cc(C(F)(F)F)c1` [Example 9-3, {(R)-5-[(3-cyclopentyloxy-5-trifluoromethyl-benzenesulfonyl)-methyl-amino]-5,6,7,8-tetrahydro-naphthalen-1-yloxy}-acetic acid] here?
Answer: 8520 nM

Question: What about the IC50 [2] of the same compound?
Answer: 423 nM

Question: Which results are given for `O=C(O)COc1cccc2c1CCC[C@H]2NS(=O)(=O)c1cc(Cl)cc(Cl)c1` [Example 10-1, [(R)-5-(3,5-dichloro-benzenesulfonylamino)-5,6,7,8-tetrahydro-naphthalen-1-yloxy]-acetic acid]?
Answer: IC50 [1]: 126 nM; IC50 [2]: 340 nM

Question: With `O=C(O)COc1cccc2c1CCC[C@H]2NS(=O)(=O)c1cc(F)cc(F)c1` [Example 10-5, [(R)-5-(3,5-difluoro-benzenesulfonylamino)-5,6,7,8-tetrahydro-naphthalen-1-yloxy]-acetic acid] as the compound, how does the IC50 [1] read?
Answer: 2420 nM

Question: And the IC50 [2]?
Answer: 13 nM

Question: Which results are given for `O=C(O)COc1cccc2c1CCC[C@H]2NS(=O)(=O)c1cc(F)cc(C(F)(F)F)c1` [Example 10-12, [(R)-5-(3-fluoro-5-trifluoromethyl-benzenesulfonylamino)-5,6,7,8-tetrahydro-naphthalen-1-yloxy]-acetic acid]?
Answer: IC50 [1]: 342 nM; IC50 [2]: 20 nM

Reference: patent US20100041760A1, “MONOARYL AMINOTETRALINES” (priority 2008, published 2010)
